How the values were obtained:
HEK293 [1] = test: Inhibitory activity against beta-amyloid (Abeta) peptide in human HEK293/APP751swe cells; Range 4.8-7.5; type: functional, cell-based
Beta-secretase 1 = Beta-secretase 1 (Homo sapiens, UniProt P56817); test: In vitro inhibitory activity against Beta-secretase 1 in human HEK293 cells; type: cell-based
HEK293 [2] = test: Inhibitory activity against beta-amyloid (Abeta) peptide in human HEK293/APP751swe cells; type: functional, cell-based
[3] = target: T1, Beta-secretase 2 (Homo sapiens) (UniProt Q9Y5Z0); test: Selectivity tested against Beta-secretase 2 (BACE) in human
T1 sequence (whole entry): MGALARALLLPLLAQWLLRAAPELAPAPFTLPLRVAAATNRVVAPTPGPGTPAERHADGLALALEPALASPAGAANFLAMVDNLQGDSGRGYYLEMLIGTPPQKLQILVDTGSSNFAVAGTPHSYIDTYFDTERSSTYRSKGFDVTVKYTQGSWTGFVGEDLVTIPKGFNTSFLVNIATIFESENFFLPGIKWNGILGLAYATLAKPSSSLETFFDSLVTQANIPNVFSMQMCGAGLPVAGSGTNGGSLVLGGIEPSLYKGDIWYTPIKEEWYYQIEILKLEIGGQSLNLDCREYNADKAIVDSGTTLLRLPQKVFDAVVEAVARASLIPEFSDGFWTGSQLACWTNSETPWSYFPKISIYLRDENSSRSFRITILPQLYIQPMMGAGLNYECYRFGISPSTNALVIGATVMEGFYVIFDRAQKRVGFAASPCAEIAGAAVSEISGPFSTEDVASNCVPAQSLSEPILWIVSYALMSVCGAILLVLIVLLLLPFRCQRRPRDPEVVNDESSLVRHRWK

HEK293 [4] = test: Inhibitory activity against beta-amyloid (Abeta) peptide in human HEK293/APP751swe cells; Range 0.97-1.35; type: functional, cell-based

Chain of Beta-secretase 1 (P56817 whole entry): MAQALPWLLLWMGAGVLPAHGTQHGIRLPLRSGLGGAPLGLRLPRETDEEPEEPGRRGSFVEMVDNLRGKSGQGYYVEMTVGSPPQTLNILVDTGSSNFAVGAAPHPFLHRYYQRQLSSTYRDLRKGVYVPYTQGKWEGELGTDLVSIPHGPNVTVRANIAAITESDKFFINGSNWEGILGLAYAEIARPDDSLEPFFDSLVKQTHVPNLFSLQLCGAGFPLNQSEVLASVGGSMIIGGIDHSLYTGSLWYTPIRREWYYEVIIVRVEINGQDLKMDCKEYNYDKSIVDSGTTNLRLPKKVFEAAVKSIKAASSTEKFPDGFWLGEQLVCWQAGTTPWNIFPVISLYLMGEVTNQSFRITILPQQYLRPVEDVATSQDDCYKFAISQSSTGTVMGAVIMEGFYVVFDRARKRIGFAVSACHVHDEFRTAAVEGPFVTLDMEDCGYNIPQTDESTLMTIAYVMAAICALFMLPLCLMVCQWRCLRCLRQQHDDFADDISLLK

IC50 (Beta-secretase 1) | Selectivity [3] | Compound | IC50 (HEK293 [1]) | IC50 (HEK293 [2]) | IC50 (HEK293 [4])
3180 nM | – | CC[C@H](C)[C@H](O)C(=O)N[C@@H](CC(F)F)C(=O)N[C@@H](Cc1ccccc1)[C@@H](O)C[C@@H](CC(F)F)C(=O)N[C@H](C(=O)NCc1ccncc1)C(C)C | – | > 37500 nM | –
190 nM | 0.52 | CC(C[C@H](O)[C@H](Cc1ccccc1)NC(=O)[C@H](C)NC(=O)[C@@H](N)C(C)C)C(=O)NC(C(=O)NCc1ccncc1)C(C)C (single isomer, unassigned) | – | 38400 nM | –
35 nM | – | CC[C@H](C)[C@H](O)C(=O)N[C@@H](C)C(=O)N[C@@H](Cc1ccccc1)[C@@H](O)CC(C)C(=O)N[C@H](C(=O)NCc1ccncc1)C(C)C (single isomer, unassigned) | – | 1230 nM | –
176 nM | – | CC[C@H](C)[C@H](O)C(=O)N[C@@H](CC(C)C)C(=O)N[C@@H](Cc1ccccc1)[C@@H](O)CC(CC(C)C)C(=O)N[C@H](C(=O)NCc1ccncc1)C(C)C (single isomer, unassigned) | – | 3700 nM | –
4640 nM | – | CC(C[C@H](O)[C@H](Cc1ccccc1)NC(=O)[C@@H](NC(=O)[C@@H](O)C(C)C)C(C)C)C(=O)N[C@H](C(=O)NCc1ccncc1)C(C)C (single isomer, unassigned) | – | – | –
350 nM | – | CC(C[C@H](O)[C@H](Cc1ccccc1)NC(=O)[C@H](CO)NC(=O)[C@@H](O)C(C)C)C(=O)N[C@H](C(=O)NCc1ccncc1)C(C)C (single isomer, unassigned) | – | 20000 nM | –
45 nM | – | CC[C@H](C)[C@H](O)C(=O)N[C@@H](CCC(F)F)C(=O)N[C@@H](Cc1ccccc1)[C@@H](O)CC(CCC(F)F)C(=O)N[C@H](C(=O)NCc1ccncc1)C(C)C (single isomer, unassigned) | – | 1080 nM | –
67 nM | – | CC[C@H](C)[C@H](O)C(=O)N[C@@H](CCCF)C(=O)N[C@@H](Cc1ccccc1)[C@@H](O)CC(CCCF)C(=O)N[C@H](C(=O)NCc1ccncc1)C(C)C (single isomer, unassigned) | – | – | < 1350 nM
230 nM | – | CC(C)C[C@H](O)C(=O)N[C@@H](C)C(=O)N[C@@H](Cc1ccccc1)[C@@H](O)CC(C)C(=O)N[C@H](C(=O)NCc1ccncc1)C(C)C (single isomer, unassigned) | – | 16900 nM | –
1130 nM | – | CC(C[C@H](O)[C@H](Cc1ccccc1)NC(=O)[C@H](C)NC(=O)[C@@H](F)C(C)C)C(=O)N[C@H](C(=O)NCc1ccncc1)C(C)C (single isomer, unassigned) | – | 49000 nM | –
350 nM | – | CSCC[C@H](NC(=O)[C@@H](O)C(C)C)C(=O)N[C@@H](Cc1ccccc1)[C@@H](O)CC(C)C(=O)N[C@H](C(=O)NCc1ccncc1)C(C)C (single isomer, unassigned) | – | 25200 nM | –
100 nM | – | CCC(C[C@H](O)[C@H](Cc1ccccc1)NC(=O)[C@H](C)NC(=O)[C@@H](O)C(C)C)C(=O)N[C@H](C(=O)N[C@H](C)c1ccccc1)C(C)C (single isomer, unassigned) | – | 13600 nM | –
220 nM | – | CC(C[C@H](O)[C@H](Cc1ccccc1)NC(=O)[C@H](C)NC(=O)[C@@H](O)CC(F)(F)F)C(=O)N[C@H](C(=O)NCc1ccncc1)C(C)C (single isomer, unassigned) | – | 3900 nM | –
60 nM | – | CCC(C[C@H](O)[C@H](Cc1ccccc1)NC(=O)[C@H](C)NC(=O)[C@@H](O)C(C)C)C(=O)N[C@H](C(=O)N[C@@H](C)c1ccccc1)C(C)C (single isomer, unassigned) | – | 19800 nM | –
550 nM | – | CCC[C@H](NC(=O)[C@@H](O)C(C)C)C(=O)N[C@@H](Cc1ccccc1)[C@@H](O)CC(C)C(=O)N[C@H](C(=O)NCc1ccncc1)C(C)C (single isomer, unassigned) | – | 30400 nM | –
1740 nM | – | CC(C)CC(=O)N[C@@H](C)C(=O)N[C@@H](Cc1ccccc1)[C@@H](O)CC(C)C(=O)N[C@H](C(=O)NCc1ccncc1)C(C)C (single isomer, unassigned) | – | > 100000 nM | –
4490 nM | – | CC(C[C@H](O)[C@H](Cc1ccccc1)NC(=O)[C@H](COC(C)(C)C)NC(=O)[C@@H](O)C(C)C)C(=O)N[C@H](C(=O)NCc1ccncc1)C(C)C (single isomer, unassigned) | – | – | –

Compound | IC50 (Beta-secretase 1) | Selectivity [3] | IC50 (HEK293 [1]) | IC50 (HEK293 [2]) | IC50 (HEK293 [4])
CC(C)[C@H](O)C(=O)N[C@@H](C)C(=O)N[C@@H](Cc1ccccc1)[C@@H](O)C[C@@H](C)C(=O)N[C@H](C(=O)NCc1ccncc1)C(C)C | 130 nM | – | < 7500 nM | – | –
CC(C[C@H](O)[C@H](Cc1ccccc1)NC(=O)[C@H](C)NC(=O)[C@@H](O)C(C)C)C(=O)N[C@H](C(=O)NCc1ccccc1)C(C)C (single isomer, unassigned) | 37 nM | – | – | 6300 nM | –

Source: ChEMBL document CHEMBL1146699, “P3 cap modified Phe*-Ala series BACE inhibitors” (Bioorg Med Chem Lett, 2004)
